Laboratory results: article PMC5290327, “SC83288 is a clinical development candidate for the treatment of severe malaria” (Nature Communications, 2017)

Key:
Test in all cases: KINOMEscan
Format in all cases: binding
Details in all cases: read-out: Remaining enzyme activity
AAK1 = molecular target: T1, AAK1 (Homo sapiens, UniProt Q2M2I8)
T1 construct: purchased Ambit (DiscoverX) KINOMEscan; Cerep
Method in brief: (§1)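 SC81458 was screened at a single 10 μM final concentration for its ability to compete with an immobilized, active-site directed ligand for each kinase. Kinase in the eluates was measured by quantitative PCR. Beads were blocked with biotin and SeaBlock buffer holding 1% BSA, 0.05% Tween 20 and 1 mM DTT.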

ABL1(Y253F) = molecular target: T2, ABL1(Y253F) (Homo sapiens, UniProt P00519, Y253F)
T2 construct: purchased Ambit (DiscoverX) KINOMEscan; Cerep
Method in brief: as §1

BRAF(V600E) = molecular target: T3, BRAF(V600E) (Homo sapiens, UniProt P15056, V600E)
T3 construct: purchased Ambit (DiscoverX) KINOMEscan; Cerep
Method in brief: as §1

CDK9 = molecular target: T4, CDK9 (Homo sapiens, UniProt P50750)
T4 construct: purchased Ambit (DiscoverX) KINOMEscan; Cerep
Method in brief: as §1

CLK4 = molecular target: T5, CLK4 (Homo sapiens, UniProt Q9HAZ1)
T5 construct: purchased Ambit (DiscoverX) KINOMEscan; Cerep
Method in brief: as §1

DDR2 = molecular target: T6, DDR2 (Homo sapiens, UniProt Q16832)
T6 construct: purchased Ambit (DiscoverX) KINOMEscan; Cerep
T6 sequence (Q16832 22-855): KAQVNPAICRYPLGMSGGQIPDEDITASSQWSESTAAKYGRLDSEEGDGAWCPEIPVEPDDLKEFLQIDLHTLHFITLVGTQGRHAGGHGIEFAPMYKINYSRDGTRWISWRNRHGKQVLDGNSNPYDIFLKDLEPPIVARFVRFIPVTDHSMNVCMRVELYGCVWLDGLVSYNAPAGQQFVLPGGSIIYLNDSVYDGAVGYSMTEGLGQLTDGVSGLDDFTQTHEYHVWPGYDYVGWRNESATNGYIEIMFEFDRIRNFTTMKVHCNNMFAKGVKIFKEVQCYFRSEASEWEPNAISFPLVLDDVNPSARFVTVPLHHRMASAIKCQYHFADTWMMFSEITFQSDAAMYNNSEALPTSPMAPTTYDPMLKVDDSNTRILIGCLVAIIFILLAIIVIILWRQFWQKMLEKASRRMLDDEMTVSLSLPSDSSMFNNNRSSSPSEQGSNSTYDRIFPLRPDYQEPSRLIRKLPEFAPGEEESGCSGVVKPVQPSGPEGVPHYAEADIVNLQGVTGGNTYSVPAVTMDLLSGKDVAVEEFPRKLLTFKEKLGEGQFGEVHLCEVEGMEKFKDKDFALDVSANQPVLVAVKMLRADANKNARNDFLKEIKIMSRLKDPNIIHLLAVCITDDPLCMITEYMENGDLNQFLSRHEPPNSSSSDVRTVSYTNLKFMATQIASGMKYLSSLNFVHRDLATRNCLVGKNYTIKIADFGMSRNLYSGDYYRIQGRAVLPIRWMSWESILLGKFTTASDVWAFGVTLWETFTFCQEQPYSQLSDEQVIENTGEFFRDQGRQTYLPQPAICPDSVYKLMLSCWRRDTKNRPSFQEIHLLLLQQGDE
Method in brief: as §1

DMPK = molecular target: T7, DMPK (Homo sapiens, UniProt Q09013)
T7 construct: purchased Ambit (DiscoverX) KINOMEscan; Cerep
T7 sequence (Q09013 whole entry): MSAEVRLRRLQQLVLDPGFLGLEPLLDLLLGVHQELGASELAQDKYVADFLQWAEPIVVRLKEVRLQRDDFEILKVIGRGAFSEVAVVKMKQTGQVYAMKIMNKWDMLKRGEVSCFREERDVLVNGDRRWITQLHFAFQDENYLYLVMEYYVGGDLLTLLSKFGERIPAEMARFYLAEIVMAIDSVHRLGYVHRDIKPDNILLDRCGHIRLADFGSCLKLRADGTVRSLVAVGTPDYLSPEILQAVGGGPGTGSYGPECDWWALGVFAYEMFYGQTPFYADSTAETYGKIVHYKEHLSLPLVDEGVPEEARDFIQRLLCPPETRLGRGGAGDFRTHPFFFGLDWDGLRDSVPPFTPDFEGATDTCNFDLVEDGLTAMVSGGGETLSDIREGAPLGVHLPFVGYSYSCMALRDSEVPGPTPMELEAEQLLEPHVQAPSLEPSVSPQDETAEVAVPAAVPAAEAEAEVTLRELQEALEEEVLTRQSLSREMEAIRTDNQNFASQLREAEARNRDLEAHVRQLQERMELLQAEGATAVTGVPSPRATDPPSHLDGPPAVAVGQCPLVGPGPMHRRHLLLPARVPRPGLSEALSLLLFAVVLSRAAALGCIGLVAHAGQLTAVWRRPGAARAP
Method in brief: as §1

DYRK2 = molecular target: T8, DYRK2 (Homo sapiens, UniProt Q92630)
T8 construct: purchased Ambit (DiscoverX) KINOMEscan; Cerep
Method in brief: as §1

ERK1 = molecular target: T9, ERK1 (Homo sapiens, UniProt P27361)
T9 construct: purchased Ambit (DiscoverX) KINOMEscan; Cerep
Method in brief: as §1

GRK7 = molecular target: T10, GRK7 (Homo sapiens, UniProt Q8WTQ7)
T10 construct: purchased Ambit (DiscoverX) KINOMEscan; Cerep
T10 sequence (Q8WTQ7 whole entry): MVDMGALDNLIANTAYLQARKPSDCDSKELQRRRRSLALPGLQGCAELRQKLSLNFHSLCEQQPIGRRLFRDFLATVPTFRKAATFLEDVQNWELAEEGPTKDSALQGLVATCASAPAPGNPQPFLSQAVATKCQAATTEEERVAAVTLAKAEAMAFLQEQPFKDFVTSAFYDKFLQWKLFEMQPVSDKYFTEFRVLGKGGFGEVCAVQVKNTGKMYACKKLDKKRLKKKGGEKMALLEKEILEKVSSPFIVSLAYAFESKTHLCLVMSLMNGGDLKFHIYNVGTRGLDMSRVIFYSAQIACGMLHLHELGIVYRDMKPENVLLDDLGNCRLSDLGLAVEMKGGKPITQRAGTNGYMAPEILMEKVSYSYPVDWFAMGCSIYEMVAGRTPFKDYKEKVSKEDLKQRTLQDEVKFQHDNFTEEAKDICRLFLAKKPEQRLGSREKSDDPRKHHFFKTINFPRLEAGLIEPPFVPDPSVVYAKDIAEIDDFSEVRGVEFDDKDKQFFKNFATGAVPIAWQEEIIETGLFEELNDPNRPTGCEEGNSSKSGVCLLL
Method in brief: as §1

HIPK2 = molecular target: T11, HIPK2 (Homo sapiens, UniProt Q9H2X6)
T11 construct: purchased Ambit (DiscoverX) KINOMEscan; Cerep
Method in brief: as §1

[1] = molecular target: T12, JAK1(JH1domain-catalytic) (Homo sapiens, UniProt P23458)
T12 construct: JAK1(JH1domain-catalytic); purchased Ambit (DiscoverX) KINOMEscan; Cerep
T12 sequence (P23458 875-1154 limits assumed): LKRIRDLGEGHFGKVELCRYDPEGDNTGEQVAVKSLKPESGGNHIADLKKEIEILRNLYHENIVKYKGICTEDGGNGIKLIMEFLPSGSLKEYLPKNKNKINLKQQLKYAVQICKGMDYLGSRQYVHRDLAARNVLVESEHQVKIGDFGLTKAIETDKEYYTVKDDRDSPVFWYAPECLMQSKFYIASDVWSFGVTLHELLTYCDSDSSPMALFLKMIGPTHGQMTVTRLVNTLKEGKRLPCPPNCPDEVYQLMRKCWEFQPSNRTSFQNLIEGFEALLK
Method in brief: as §1

MAP3K4 = molecular target: T13, MAP3K4 (Homo sapiens, UniProt Q9Y6R4)
T13 construct: purchased Ambit (DiscoverX) KINOMEscan; Cerep
Method in brief: as §1

MARK4 = molecular target: T14, MARK4 (Homo sapiens, UniProt Q96L34)
T14 construct: purchased Ambit (DiscoverX) KINOMEscan; Cerep
T14 sequence (Q96L34 whole entry): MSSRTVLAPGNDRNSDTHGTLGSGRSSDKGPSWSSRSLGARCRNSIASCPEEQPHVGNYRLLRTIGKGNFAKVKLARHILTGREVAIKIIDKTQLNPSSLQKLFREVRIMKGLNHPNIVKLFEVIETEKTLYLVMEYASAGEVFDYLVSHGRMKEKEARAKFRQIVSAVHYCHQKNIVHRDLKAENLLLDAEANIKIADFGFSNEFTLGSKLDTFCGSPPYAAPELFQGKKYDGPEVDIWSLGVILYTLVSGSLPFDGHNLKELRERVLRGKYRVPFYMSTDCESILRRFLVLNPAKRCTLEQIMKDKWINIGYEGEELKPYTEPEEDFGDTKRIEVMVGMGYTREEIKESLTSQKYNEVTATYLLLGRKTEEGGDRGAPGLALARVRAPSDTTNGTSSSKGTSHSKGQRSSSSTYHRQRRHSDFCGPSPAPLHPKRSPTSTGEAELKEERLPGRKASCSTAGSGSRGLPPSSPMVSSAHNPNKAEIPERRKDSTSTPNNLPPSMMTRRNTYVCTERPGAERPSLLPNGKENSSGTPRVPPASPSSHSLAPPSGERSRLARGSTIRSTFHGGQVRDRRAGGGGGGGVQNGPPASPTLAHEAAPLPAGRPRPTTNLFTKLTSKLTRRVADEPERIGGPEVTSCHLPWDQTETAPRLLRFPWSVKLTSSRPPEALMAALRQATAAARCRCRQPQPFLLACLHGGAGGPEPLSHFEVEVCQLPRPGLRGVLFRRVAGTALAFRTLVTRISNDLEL
Method in brief: as §1

MST3 = molecular target: T15, MST3 (Homo sapiens, UniProt Q9Y6E0)
T15 construct: purchased Ambit (DiscoverX) KINOMEscan; Cerep
Method in brief: as §1

MST4 = molecular target: T16, MST4 (Homo sapiens, UniProt Q9P289)
T16 construct: purchased Ambit (DiscoverX) KINOMEscan; Cerep
Method in brief: as §1

MYLK2 = molecular target: T17, MYLK2 (Homo sapiens, UniProt Q9H1R3)
T17 construct: purchased Ambit (DiscoverX) KINOMEscan; Cerep
Method in brief: as §1

PIM2 = molecular target: T18, PIM2 (Homo sapiens, UniProt Q9P1W9)
T18 construct: purchased Ambit (DiscoverX) KINOMEscan; Cerep
T18 sequence (Q9P1W9 whole entry): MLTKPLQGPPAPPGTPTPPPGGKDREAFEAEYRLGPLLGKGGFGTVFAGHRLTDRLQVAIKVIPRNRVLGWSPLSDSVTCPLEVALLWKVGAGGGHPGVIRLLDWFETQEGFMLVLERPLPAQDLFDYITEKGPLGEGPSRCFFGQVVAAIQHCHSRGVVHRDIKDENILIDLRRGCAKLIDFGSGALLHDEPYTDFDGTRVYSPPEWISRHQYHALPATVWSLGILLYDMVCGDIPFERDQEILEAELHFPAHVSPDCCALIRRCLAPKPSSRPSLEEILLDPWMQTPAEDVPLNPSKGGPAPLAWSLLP
Method in brief: as §1

PIP5K2b = molecular target: T19, PIP5K2b (Homo sapiens, UniProt P78356)
T19 construct: purchased Ambit (DiscoverX) KINOMEscan; Cerep
Method in brief: as §1

PLK1 = molecular target: T20, PLK1 (Homo sapiens, UniProt P53350)
T20 construct: purchased Ambit (DiscoverX) KINOMEscan; Cerep
Method in brief: as §1

PRKCQ = molecular target: T21, PRKCQ (Homo sapiens, UniProt Q04759)
T21 construct: purchased Ambit (DiscoverX) KINOMEscan; Cerep
T21 sequence (Q04759 whole entry): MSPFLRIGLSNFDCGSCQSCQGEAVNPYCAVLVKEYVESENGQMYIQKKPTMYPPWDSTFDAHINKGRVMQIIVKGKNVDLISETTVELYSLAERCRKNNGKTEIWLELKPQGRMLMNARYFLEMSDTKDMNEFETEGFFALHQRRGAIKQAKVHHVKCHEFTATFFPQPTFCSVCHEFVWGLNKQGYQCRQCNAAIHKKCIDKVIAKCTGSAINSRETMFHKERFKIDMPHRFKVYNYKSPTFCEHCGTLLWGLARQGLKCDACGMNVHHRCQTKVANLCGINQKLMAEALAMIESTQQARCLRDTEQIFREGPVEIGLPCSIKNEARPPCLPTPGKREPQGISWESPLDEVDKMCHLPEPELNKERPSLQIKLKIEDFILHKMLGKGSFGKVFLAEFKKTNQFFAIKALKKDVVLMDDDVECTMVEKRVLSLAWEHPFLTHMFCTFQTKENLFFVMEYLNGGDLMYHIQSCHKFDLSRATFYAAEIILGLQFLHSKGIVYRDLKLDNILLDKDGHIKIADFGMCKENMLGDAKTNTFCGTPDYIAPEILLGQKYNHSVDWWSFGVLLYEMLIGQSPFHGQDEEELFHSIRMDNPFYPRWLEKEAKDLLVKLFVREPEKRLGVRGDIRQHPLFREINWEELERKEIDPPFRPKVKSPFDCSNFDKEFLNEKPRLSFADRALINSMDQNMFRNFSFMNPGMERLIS
Method in brief: as §1

RIPK2 = molecular target: T22, RIPK2 (Homo sapiens, UniProt O43353)
T22 construct: purchased Ambit (DiscoverX) KINOMEscan; Cerep
T22 sequence (O43353 whole entry): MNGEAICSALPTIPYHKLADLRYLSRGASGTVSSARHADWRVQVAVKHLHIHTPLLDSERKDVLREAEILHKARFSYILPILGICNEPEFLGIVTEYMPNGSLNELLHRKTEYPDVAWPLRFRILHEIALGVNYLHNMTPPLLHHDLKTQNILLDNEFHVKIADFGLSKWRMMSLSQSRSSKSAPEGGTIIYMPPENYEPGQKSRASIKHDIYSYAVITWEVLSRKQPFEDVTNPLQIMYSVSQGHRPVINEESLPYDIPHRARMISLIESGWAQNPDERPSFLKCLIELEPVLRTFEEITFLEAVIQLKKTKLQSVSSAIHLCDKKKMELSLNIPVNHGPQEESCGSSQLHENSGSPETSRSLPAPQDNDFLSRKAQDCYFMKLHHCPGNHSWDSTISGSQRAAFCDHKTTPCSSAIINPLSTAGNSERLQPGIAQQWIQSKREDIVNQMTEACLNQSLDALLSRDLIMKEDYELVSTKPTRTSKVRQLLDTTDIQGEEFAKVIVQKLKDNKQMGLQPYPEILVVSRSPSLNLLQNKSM
Method in brief: as §1

[2] = molecular target: T23, RPS6KA1(Kin.Dom.2-C-term) (Homo sapiens, UniProt Q15418)
T23 construct: RPS6KA1(Kin.Dom.2-C-term); purchased Ambit (DiscoverX) KINOMEscan; Cerep
T23 sequence (Q15418 418-675 limits assumed): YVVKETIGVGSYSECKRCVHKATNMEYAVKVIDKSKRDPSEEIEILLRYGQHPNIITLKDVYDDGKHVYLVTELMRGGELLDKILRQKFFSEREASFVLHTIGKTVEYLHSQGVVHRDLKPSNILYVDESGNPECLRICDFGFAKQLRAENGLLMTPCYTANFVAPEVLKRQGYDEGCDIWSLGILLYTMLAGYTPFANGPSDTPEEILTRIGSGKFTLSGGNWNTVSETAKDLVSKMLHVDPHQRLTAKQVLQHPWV
Method in brief: as §1

[3] = molecular target: T24, RPS6KA2(Kin.Dom.2-C-term) (Homo sapiens, UniProt Q15349)
T24 construct: RPS6KA2(Kin.Dom.2-C-term); purchased Ambit (DiscoverX) KINOMEscan; Cerep
Method in brief: as §1

[4] = molecular target: T25, RPS6KA5(Kin.Dom.2-C-term) (Homo sapiens, UniProt O75582)
T25 construct: RPS6KA5(Kin.Dom.2-C-term); purchased Ambit (DiscoverX) KINOMEscan; Cerep
Method in brief: as §1

STK33 = molecular target: T26, STK33 (Homo sapiens, UniProt Q9BYT3)
T26 construct: purchased Ambit (DiscoverX) KINOMEscan; Cerep
Method in brief: as §1

TGFBR1 = molecular target: T27, TGFBR1 (Homo sapiens, UniProt P36897)
T27 construct: purchased Ambit (DiscoverX) KINOMEscan; Cerep
Method in brief: as §1

TLK2 = molecular target: T28, TLK2 (Homo sapiens, UniProt Q86UE8)
T28 construct: purchased Ambit (DiscoverX) KINOMEscan; Cerep
Method in brief: as §1

TNIK = molecular target: T29, TNIK (Homo sapiens, UniProt Q9UKE5)
T29 construct: purchased Ambit (DiscoverX) KINOMEscan; Cerep
Method in brief: as §1

ZAK = molecular target: T30, ZAK (Homo sapiens, UniProt Q9NYL2)
T30 construct: purchased Ambit (DiscoverX) KINOMEscan; Cerep
Method in brief: as §1

p38-delta = molecular target: T31, p38-delta (Homo sapiens, UniProt O15264)
T31 construct: purchased Ambit (DiscoverX) KINOMEscan; Cerep
Method in brief: as §1

Q: For `CCCCN1CCN(C(=N)c2cccc(NC(=O)Nc3ccc(S(=O)(=O)NCc4ccc(S(N)(=O)=O)cc4)cc3)c2)CC1` [SC81458, 4-(3-(3-((4-butylpiperazin-1-yl)(imino)methyl)phenyl)ureido)-N-(4-sulfamoylbenzyl) benzenesulfonamide], which remaining binding at 10 µM (AAK1) is on record?
A: 100%

Q: What about the remaining binding at 10 µM (ABL1(Y253F)) of the same molecule?
A: 92%

Q: What about the remaining binding at 10 µM (BRAF(V600E)) of the same molecule?
A: 100%

Q: And the remaining binding at 10 µM (CDK9)?
A: 100%

Q: What about the remaining binding at 10 µM (CLK4) of the same molecule?
A: 92%

Q: And the remaining binding at 10 µM (DDR2)?
A: 100%

Q: What about the remaining binding at 10 µM (DMPK) of the same molecule?
A: 76%

Q: And the remaining binding at 10 µM (DYRK2)?
A: 100%

Q: And the remaining binding at 10 µM (ERK1)?
A: 99%

Q: What about the remaining binding at 10 µM (GRK7) of the same molecule?
A: 100%

Q: And the remaining binding at 10 µM (HIPK2)?
A: 100%

Q: What about the remaining binding at 10 µM [1] of the same molecule?
A: 87%

Q: What about the remaining binding at 10 µM (MAP3K4) of the same molecule?
A: 100%

Q: What about the remaining binding at 10 µM (MARK4) of the same molecule?
A: 100%

Q: What about the remaining binding at 10 µM (MST3) of the same molecule?
A: 100%

Q: And the remaining binding at 10 µM (MST4)?
A: 100%

Q: What about the remaining binding at 10 µM (MYLK2) of the same molecule?
A: 100%

Q: And the remaining binding at 10 µM (PIM2)?
A: 87%

Q: What about the remaining binding at 10 µM (PIP5K2b) of the same molecule?
A: 84%

Q: And the remaining binding at 10 µM (PLK1)?
A: 96%

Q: And the remaining binding at 10 µM (PRKCQ)?
A: 100%

Q: What about the remaining binding at 10 µM (RIPK2) of the same molecule?
A: 96%

Q: And the remaining binding at 10 µM [2]?
A: 100%

Q: What about the remaining binding at 10 µM [3] of the same molecule?
A: 100%

Q: And the remaining binding at 10 µM [4]?
A: 100%

Q: And the remaining binding at 10 µM (STK33)?
A: 100%

Q: And the remaining binding at 10 µM (TGFBR1)?
A: 100%

Q: And the remaining binding at 10 µM (TLK2)?
A: 97%

Q: What about the remaining binding at 10 µM (TNIK) of the same molecule?
A: 100%

Q: What about the remaining binding at 10 µM (ZAK) of the same molecule?
A: 100%

Q: And the remaining binding at 10 µM (p38-delta)?
A: 89%
